# Experimental data as given in patent publication US11214594B2, “Antimicrobial peptide having synergistic antibacterial effect with antibiotics on multidrug resistant bacteria, and use thereof” (priority 2016, dated 2022).
# Where a SMILES comes first, the peptide text is derived from it. [ ]: non-standard residue; d: D form.
# Tests used:
# MDREC 1238 = assay type: cell-based, Escherichia coli
# Procedure, shortened: (§1)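 Broth microdilution in MH medium: bacterial strains diluted to 2×10^6 CFU were mixed with equal volumes of peptide serially diluted twofold in MH medium.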
# P. aeruginosa = test: microbe, parasite or virus in culture; assay type: cell-based, Pseudomonas aeruginosa
# Procedure, shortened: as §1
# MDRPA 2003 = assay type: cell-based, Pseudomonas aeruginosa
# Procedure, shortened: as §1
# MDRAB 12036 = assay type: cell-based, Acinetobacter baumannii
# Procedure, shortened: as §1
# MDRST 8009 = assay type: cell-based, Salmonella typhimurium; conditions: agent alone
# Procedure, shortened: as §1
# S. epidermidis = test: microbe, parasite or virus in culture; assay type: cell-based, Staphylococcus epidermidis
# Procedure, shortened: as §1
# MDREC 1229 = test: MIC of antibiotic during combined treatment with antimicrobial peptide; assay type: cell-based, Escherichia coli
# Procedure, shortened: (§2)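 Strains in MH medium at 2×10^6 CFU/ml were mixed with peptide diluted stepwise (2:1) from its MIC, then antibiotic dilutions in MH medium were added to give the antibiotic MIC. The reversed set-up, peptide titrated against fixed antibiotic, gave the peptide MIC.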
# A. baumannii = test: as above; assay type: cell-based, Acinetobacter baumannii; conditions: for Antibiotic MIC, Erythromycin / Antibiotic MIC, Linezolid / Antibiotic MIC, Vancomycin: A. baumannii
# Procedure, shortened: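 Checkerboard-type MIC of peptide–antibiotic mixtures in MH medium: the antibiotic was serially diluted in MH medium and added to wells, then the reversed arrangement was also tested.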
# MDRAB 12035 = test: as above; assay type: cell-based, Acinetobacter baumannii
# Procedure, shortened: as §2
# [1] = peptide treatment concentration 1 μg/ml
# [2] = peptide treatment concentration 2 μg/ml
# [3] = peptide treatment concentration 4 μg/ml
# [4] = peptide treatment concentration 6 μg/ml
# [5] = peptide treatment concentration 8 μg/ml
# [6] = peptide treatment concentration 16 μg/ml
# [7] = peptide treatment concentration 32 μg/ml
# [8] = peptide treatment concentration 64 μg/ml
# [9] = combined with peptide at 1 μg/ml
# [10] = combined with peptide at 2 μg/ml
# [11] = combined with peptide at 4 μg/ml
# [12] = combined with peptide at 6 μg/ml
# [13] = combined with peptide at 8 μg/ml
# [14] = combined with peptide at 16 μg/ml
# [15] = combined with peptide at 32 μg/ml
# [16] = combined with peptide at 64 μg/ml
structure (smiles),measurement,setting,value
"CC[C@H](C)[C@H](NC(=O)[C@H](CCCCN)NC(=O)[C@H](Cc1c[nH]c2ccccc12)NC(=O)[C@@H](N)CCCNC(=N)N)C(=O)N[C@@H](Cc1ccccc1)C(=O)N[C@@H](CCCCN)C(=O)N[C@@H](CCCCN)C(=O)N[C@H](C(=O)N[C@H](CCCCN)C(=O)N[C@@H](CCCCN)C(=O)N[C@@H](CC(C)C)C(=O)N[C@@H](CC(C)C)C(=O)N[C@@H](Cc1c[nH]cn1)C(=O)N[C@@H](CO)C(=O)N[C@@H](C)C(=O)N[C@@H](CCCCN)C(=O)N[C@@H](CCCCN)C(=O)N[C@@H](Cc1c[nH]c2ccccc12)C(N)=O)[C@@H](C)CC [PapMA-16, RWK IFK KIk KLL HSA KKW-NH2] (H-RWKIFKKI[dK]KLLHSAKKW-NH2; N-terminus assumed)",Minimal inhibitory concentration MIC,MDREC 1238,64 µg/mL
same,Minimal inhibitory concentration MIC,P. aeruginosa,64 µg/mL
same,Minimal inhibitory concentration MIC,MDRPA 2003,64 µg/mL
same,Minimal inhibitory concentration MIC,MDRAB 12036,32 µg/mL
same,Minimal inhibitory concentration MIC,MDRST 8009,64 µg/mL
same,Minimal inhibitory concentration MIC,S. epidermidis,>128 µg/mL
same,"Antibiotic MIC, Erythromycin",MDREC 1229; [1],>128 µg/mL
same,"Antibiotic MIC, Linezolid",MDREC 1229; [1],>128 µg/mL
same,"Antibiotic MIC, Vancomycin",MDREC 1229; [1],>128 µg/mL
same,"Antibiotic MIC, Erythromycin",MDREC 1229; [2],64 µg/mL
same,"Antibiotic MIC, Linezolid",MDREC 1229; [2],>128 µg/mL
same,"Antibiotic MIC, Vancomycin",MDREC 1229; [2],>128 µg/mL
same,"Antibiotic MIC, Erythromycin",MDREC 1229; [3],32 µg/mL
same,"Antibiotic MIC, Linezolid",MDREC 1229; [3],64 µg/mL
same,"Antibiotic MIC, Vancomycin",MDREC 1229; [3],128 µg/mL
same,"Antibiotic MIC, Erythromycin",MDREC 1229; [4],4 µg/mL
same,"Antibiotic MIC, Linezolid",MDREC 1229; [4],32 µg/mL
same,"Antibiotic MIC, Vancomycin",MDREC 1229; [4],32 µg/mL
same,"Antibiotic MIC, Erythromycin",MDREC 1229; [5],2 µg/mL
same,"Antibiotic MIC, Linezolid",MDREC 1229; [5],16 µg/mL
same,"Antibiotic MIC, Vancomycin",MDREC 1229; [5],16 µg/mL
same,"Antibiotic MIC, Erythromycin",MDREC 1229; [6],1 µg/mL
same,"Antibiotic MIC, Linezolid",MDREC 1229; [6],8 µg/mL
same,"Antibiotic MIC, Vancomycin",MDREC 1229; [6],8 µg/mL
same,"Antibiotic MIC, Erythromycin",MDREC 1229; [7],0.5 µg/mL
same,"Antibiotic MIC, Linezolid",MDREC 1229; [7],4 µg/mL
same,"Antibiotic MIC, Vancomycin",MDREC 1229; [7],4 µg/mL
same,"Antibiotic MIC, Erythromycin",MDREC 1229; [8],0 µg/mL
same,"Antibiotic MIC, Linezolid",MDREC 1229; [8],0 µg/mL
same,"Antibiotic MIC, Vancomycin",MDREC 1229; [8],0 µg/mL
same,Synergistic effect of antibacterial activity with existing antibiotics compared with PapMA-1,A. baumannii; A. baumannii and MDRAB 12035,level similar to that of PapMA-1 peptide
same,"Antibiotic MIC, Erythromycin",A. baumannii; [9],32 µg/mL
same,"Antibiotic MIC, Linezolid",A. baumannii; [9],>128 µg/mL
same,"Antibiotic MIC, Vancomycin",A. baumannii; [9],>128 µg/mL
same,"Antibiotic MIC, Erythromycin",A. baumannii; [10],16 µg/mL
same,"Antibiotic MIC, Linezolid",A. baumannii; [10],>128 µg/mL
same,"Antibiotic MIC, Vancomycin",A. baumannii; [10],128 µg/mL
same,"Antibiotic MIC, Erythromycin",A. baumannii; [11],8 µg/mL
same,"Antibiotic MIC, Linezolid",A. baumannii; [11],128 µg/mL
same,"Antibiotic MIC, Vancomycin",A. baumannii; [11],64 µg/mL
same,"Antibiotic MIC, Erythromycin",A. baumannii; [12],1 µg/mL
same,"Antibiotic MIC, Linezolid",A. baumannii; [12],32 µg/mL
same,"Antibiotic MIC, Vancomycin",A. baumannii; [12],32 µg/mL
same,"Antibiotic MIC, Erythromycin",A. baumannii; [13],0.5 µg/mL
same,"Antibiotic MIC, Linezolid",A. baumannii; [13],16 µg/mL
same,"Antibiotic MIC, Vancomycin",A. baumannii; [13],16 µg/mL
same,"Antibiotic MIC, Erythromycin",A. baumannii; [14],0.25 µg/mL
same,"Antibiotic MIC, Linezolid",A. baumannii; [14],8 µg/mL
same,"Antibiotic MIC, Vancomycin",A. baumannii; [14],8 µg/mL
same,"Antibiotic MIC, Erythromycin",A. baumannii; [15],0 µg/mL
same,"Antibiotic MIC, Linezolid",A. baumannii; [15],0 µg/mL
same,"Antibiotic MIC, Vancomycin",A. baumannii; [15],0 µg/mL
same,"Antibiotic MIC, Erythromycin",A. baumannii; [16],0 µg/mL
same,"Antibiotic MIC, Linezolid",A. baumannii; [16],0 µg/mL
same,"Antibiotic MIC, Vancomycin",A. baumannii; [16],0 µg/mL
same,Erythromycin MIC during combined treatment with peptide,MDRAB 12035; [1],32 µg/mL
same,Linezolid MIC during combined treatment with peptide,MDRAB 12035; [1],>128 µg/mL
same,Vancomycin MIC during combined treatment with peptide,MDRAB 12035; [1],>128 µg/mL
same,Erythromycin MIC during combined treatment with peptide,MDRAB 12035; [2],32 µg/mL
